Source: the supplement of paper PMC8882468
Values joined by “and” are separate entries in the source; they are usually repeats but may differ in a detail not shown here. Equal entries are not always repeated. ± gives the standard deviation of the averaged measurements.

These compounds were tested on HCI-008 (organoid from a HER2-enriched breast cancer xenograft) (assay: CTG-3D luminescence at 96 h relative to day-0 seeding control (ratio to day 0); higher = more growth / less cytotoxicity; PDxO 3D drug screen (set 2), 96 h, CTG-3D normalised to day-0 seeding control.). Details: 625 fM; days in culture: 382.
In the case of `CCOc1ccn(-c2ccc(F)cc2)c(=O)c1C(=O)Nc1ccc(Oc2ccnc(N)c2Cl)c(F)c1` [ASLAN002], the “CTG-3D luminescence at 96 h” value is reported as 1.52. `Nc1cc(C(F)(F)F)c(-c2cc(N3CCOCC3)nc(N3CCOCC3)n2)cn1` [buparlisib] was tested, and the “CTG-3D luminescence at 96 h” value was 1.9.

These compounds were tested on MDA-MB-231 in the same assay as above. Details: 12.5 pM.
`CC(C)n1nc(-c2ccc3oc(N)nc3c2)c2c(N)ncnc21` [sapanisertib] was tested, and the “CTG-3D luminescence at 96 h” value was 5.39 ± 2.7. For `C[C@@H](Nc1cc(F)cc(F)c1)c1cc(C(=O)N(C)C)cc2c(=O)cc(N3CCOCC3)oc12` [AZD-8186], the “CTG-3D luminescence at 96 h” value was 5.61 and 5.06. For `CC(=O)c1c(C)c2cnc(Nc3ccc(N4CCNCC4)cn3)nc2n(C2CCCC2)c1=O` [palbociclib], the “CTG-3D luminescence at 96 h” value was 5.2 ± 2.5. `Cc1c(CN2CCN(C(=O)[C@H](C)O)CC2)sc2c(N3CCOCC3)nc(-c3cnc(N)nc3)nc12` [apitolisib] was tested, and the “CTG-3D luminescence at 96 h” value was 5.6 and 5.03. In the case of `CS(=O)(=O)CCNCc1ccc(-c2ccc3ncnc(Nc4ccc(OCc5cccc(F)c5)c(Cl)c4)c3c2)o1` [lapatinib], the “CTG-3D luminescence at 96 h” value is reported as 5.64 and 5.22. For `CCOc1ccn(-c2ccc(F)cc2)c(=O)c1C(=O)Nc1ccc(Oc2ccnc(N)c2Cl)c(F)c1` [ASLAN002], the “CTG-3D luminescence at 96 h” value was 5.15 ± 2.7. For `Nc1cc(C(F)(F)F)c(-c2cc(N3CCOCC3)nc(N3CCOCC3)n2)cn1` [buparlisib], the “CTG-3D luminescence at 96 h” value was 5.18 ± 2.5.

Same assay, conditions: 0.00025 µM
For `CC(C)n1nc(-c2ccc3oc(N)nc3c2)c2c(N)ncnc21` [sapanisertib], the “CTG-3D luminescence at 96 h” value was 5.2 ± 2.5. `C[C@@H](Nc1cc(F)cc(F)c1)c1cc(C(=O)N(C)C)cc2c(=O)cc(N3CCOCC3)oc12` [AZD-8186] was tested, and the “CTG-3D luminescence at 96 h” value was 5.71 and 5.14. In the case of `CC(=O)c1c(C)c2cnc(Nc3ccc(N4CCNCC4)cn3)nc2n(C2CCCC2)c1=O` [palbociclib], the “CTG-3D luminescence at 96 h” value is reported as 5.24 ± 2.5. `Cc1c(CN2CCN(C(=O)[C@H](C)O)CC2)sc2c(N3CCOCC3)nc(-c3cnc(N)nc3)nc12` [apitolisib] was tested, and the “CTG-3D luminescence at 96 h” value was 5.7 and 4.98. `CS(=O)(=O)CCNCc1ccc(-c2ccc3ncnc(Nc4ccc(OCc5cccc(F)c5)c(Cl)c4)c3c2)o1` [lapatinib] was tested, and the “CTG-3D luminescence at 96 h” value was 5.66 and 5.01. For `CCOc1ccn(-c2ccc(F)cc2)c(=O)c1C(=O)Nc1ccc(Oc2ccnc(N)c2Cl)c(F)c1` [ASLAN002], the “CTG-3D luminescence at 96 h” value was 5.18 ± 2.6. With `Nc1cc(C(F)(F)F)c(-c2cc(N3CCOCC3)nc(N3CCOCC3)n2)cn1` [buparlisib] the “CTG-3D luminescence at 96 h” value was 5.23 ± 2.7.

Same assay, conditions: 0.005 µM
`CC(C)n1nc(-c2ccc3oc(N)nc3c2)c2c(N)ncnc21` [sapanisertib] was tested, and the “CTG-3D luminescence at 96 h” value was 4.98 ± 2.2. With `C[C@@H](Nc1cc(F)cc(F)c1)c1cc(C(=O)N(C)C)cc2c(=O)cc(N3CCOCC3)oc12` [AZD-8186] the “CTG-3D luminescence at 96 h” value was 5.56 and 5.16. With `CC(=O)c1c(C)c2cnc(Nc3ccc(N4CCNCC4)cn3)nc2n(C2CCCC2)c1=O` [palbociclib] the “CTG-3D luminescence at 96 h” value was 5.27 ± 2.8. `Cc1c(CN2CCN(C(=O)[C@H](C)O)CC2)sc2c(N3CCOCC3)nc(-c3cnc(N)nc3)nc12` [apitolisib] was tested, and the “CTG-3D luminescence at 96 h” value was 5.72 and 5.32. In the case of `CS(=O)(=O)CCNCc1ccc(-c2ccc3ncnc(Nc4ccc(OCc5cccc(F)c5)c(Cl)c4)c3c2)o1` [lapatinib], the “CTG-3D luminescence at 96 h” value is reported as 5.76 and 5.34. In the case of `CCOc1ccn(-c2ccc(F)cc2)c(=O)c1C(=O)Nc1ccc(Oc2ccnc(N)c2Cl)c(F)c1` [ASLAN002], the “CTG-3D luminescence at 96 h” value is reported as 5.26 ± 2.7. For `Nc1cc(C(F)(F)F)c(-c2cc(N3CCOCC3)nc(N3CCOCC3)n2)cn1` [buparlisib], the “CTG-3D luminescence at 96 h” value was 5.28 ± 2.6.

Same assay, conditions: 0.1 µM
`C[C@@H](Nc1cc(F)cc(F)c1)c1cc(C(=O)N(C)C)cc2c(=O)cc(N3CCOCC3)oc12` [AZD-8186] was tested, and the “CTG-3D luminescence at 96 h” value was 5.39 and 4.98. `CC(=O)c1c(C)c2cnc(Nc3ccc(N4CCNCC4)cn3)nc2n(C2CCCC2)c1=O` [palbociclib] was tested, and the “CTG-3D luminescence at 96 h” value was 5.18 ± 2. For `Cc1c(CN2CCN(C(=O)[C@H](C)O)CC2)sc2c(N3CCOCC3)nc(-c3cnc(N)nc3)nc12` [apitolisib], the “CTG-3D luminescence at 96 h” value was 5.01 and 4.5. For `CS(=O)(=O)CCNCc1ccc(-c2ccc3ncnc(Nc4ccc(OCc5cccc(F)c5)c(Cl)c4)c3c2)o1` [lapatinib], the “CTG-3D luminescence at 96 h” value was 5.51 and 5.1. `CCOc1ccn(-c2ccc(F)cc2)c(=O)c1C(=O)Nc1ccc(Oc2ccnc(N)c2Cl)c(F)c1` [ASLAN002] was tested, and the “CTG-3D luminescence at 96 h” value was 5.15 ± 2.2. With `Nc1cc(C(F)(F)F)c(-c2cc(N3CCOCC3)nc(N3CCOCC3)n2)cn1` [buparlisib] the “CTG-3D luminescence at 96 h” value was 5.17 ± 2.2.

Same assay, conditions: 1 µM
With `CC(C)n1nc(-c2ccc3oc(N)nc3c2)c2c(N)ncnc21` [sapanisertib] the “CTG-3D luminescence at 96 h” value was 2.67 ± 0.52. With `C[C@@H](Nc1cc(F)cc(F)c1)c1cc(C(=O)N(C)C)cc2c(=O)cc(N3CCOCC3)oc12` [AZD-8186] the “CTG-3D luminescence at 96 h” value was 5.11 and 4.76. In the case of `CC(=O)c1c(C)c2cnc(Nc3ccc(N4CCNCC4)cn3)nc2n(C2CCCC2)c1=O` [palbociclib], the “CTG-3D luminescence at 96 h” value is reported as 5.16 ± 2.3. With `Cc1c(CN2CCN(C(=O)[C@H](C)O)CC2)sc2c(N3CCOCC3)nc(-c3cnc(N)nc3)nc12` [apitolisib] the “CTG-3D luminescence at 96 h” value was 2.91 and 2.98. For `CS(=O)(=O)CCNCc1ccc(-c2ccc3ncnc(Nc4ccc(OCc5cccc(F)c5)c(Cl)c4)c3c2)o1` [lapatinib], the “CTG-3D luminescence at 96 h” value was 5.57 and 4.9. In the case of `CCOc1ccn(-c2ccc(F)cc2)c(=O)c1C(=O)Nc1ccc(Oc2ccnc(N)c2Cl)c(F)c1` [ASLAN002], the “CTG-3D luminescence at 96 h” value is reported as 5.49 ± 2.8. In the case of `Nc1cc(C(F)(F)F)c(-c2cc(N3CCOCC3)nc(N3CCOCC3)n2)cn1` [buparlisib], the “CTG-3D luminescence at 96 h” value is reported as 4.45 ± 1.8.

Same assay, conditions: 10 µM
In the case of `CC(C)n1nc(-c2ccc3oc(N)nc3c2)c2c(N)ncnc21` [sapanisertib], the “CTG-3D luminescence at 96 h” value is reported as 1.74 ± 0.2. `C[C@@H](Nc1cc(F)cc(F)c1)c1cc(C(=O)N(C)C)cc2c(=O)cc(N3CCOCC3)oc12` [AZD-8186] was tested, and the “CTG-3D luminescence at 96 h” value was 4.68 and 4.38. `CC(=O)c1c(C)c2cnc(Nc3ccc(N4CCNCC4)cn3)nc2n(C2CCCC2)c1=O` [palbociclib] was tested, and the “CTG-3D luminescence at 96 h” value was 4.35 ± 1.2. In the case of `Cc1c(CN2CCN(C(=O)[C@H](C)O)CC2)sc2c(N3CCOCC3)nc(-c3cnc(N)nc3)nc12` [apitolisib], the “CTG-3D luminescence at 96 h” value is reported as 2.31 and 2.38. For `CCOc1ccn(-c2ccc(F)cc2)c(=O)c1C(=O)Nc1ccc(Oc2ccnc(N)c2Cl)c(F)c1` [ASLAN002], the “CTG-3D luminescence at 96 h” value was 4.89 ± 2. In the case of `Nc1cc(C(F)(F)F)c(-c2cc(N3CCOCC3)nc(N3CCOCC3)n2)cn1` [buparlisib], the “CTG-3D luminescence at 96 h” value is reported as 2.28 ± 0.45.

Same assay, conditions: 100 µM
`CC(C)n1nc(-c2ccc3oc(N)nc3c2)c2c(N)ncnc21` [sapanisertib] was tested, and the “CTG-3D luminescence at 96 h” value was 0.758 ± 0.11. With `C[C@@H](Nc1cc(F)cc(F)c1)c1cc(C(=O)N(C)C)cc2c(=O)cc(N3CCOCC3)oc12` [AZD-8186] the “CTG-3D luminescence at 96 h” value was 2.77 and 2.47. For `CC(=O)c1c(C)c2cnc(Nc3ccc(N4CCNCC4)cn3)nc2n(C2CCCC2)c1=O` [palbociclib], the “CTG-3D luminescence at 96 h” value was 1.02 ± 0.14. `Cc1c(CN2CCN(C(=O)[C@H](C)O)CC2)sc2c(N3CCOCC3)nc(-c3cnc(N)nc3)nc12` [apitolisib] was tested, and the “CTG-3D luminescence at 96 h” value was 0.873 and 0.875. For `CS(=O)(=O)CCNCc1ccc(-c2ccc3ncnc(Nc4ccc(OCc5cccc(F)c5)c(Cl)c4)c3c2)o1` [lapatinib], the “CTG-3D luminescence at 96 h” value was 0.00446 and 0.0132. With `CCOc1ccn(-c2ccc(F)cc2)c(=O)c1C(=O)Nc1ccc(Oc2ccnc(N)c2Cl)c(F)c1` [ASLAN002] the “CTG-3D luminescence at 96 h” value was 3.8 ± 1.8. With `Nc1cc(C(F)(F)F)c(-c2cc(N3CCOCC3)nc(N3CCOCC3)n2)cn1` [buparlisib] the “CTG-3D luminescence at 96 h” value was 2.15 ± 0.4.

Same assay, conditions: 625 fM
For `CC(C)n1nc(-c2ccc3oc(N)nc3c2)c2c(N)ncnc21` [sapanisertib], the “CTG-3D luminescence at 96 h” value was 5.28 ± 2.7. `C[C@@H](Nc1cc(F)cc(F)c1)c1cc(C(=O)N(C)C)cc2c(=O)cc(N3CCOCC3)oc12` [AZD-8186] was tested, and the “CTG-3D luminescence at 96 h” value was 5.47 and 5.15. In the case of `CC(=O)c1c(C)c2cnc(Nc3ccc(N4CCNCC4)cn3)nc2n(C2CCCC2)c1=O` [palbociclib], the “CTG-3D luminescence at 96 h” value is reported as 5.32 ± 2.8. With `Cc1c(CN2CCN(C(=O)[C@H](C)O)CC2)sc2c(N3CCOCC3)nc(-c3cnc(N)nc3)nc12` [apitolisib] the “CTG-3D luminescence at 96 h” value was 5.53 and 5.09. With `CS(=O)(=O)CCNCc1ccc(-c2ccc3ncnc(Nc4ccc(OCc5cccc(F)c5)c(Cl)c4)c3c2)o1` [lapatinib] the “CTG-3D luminescence at 96 h” value was 5.54 and 5.06. `CCOc1ccn(-c2ccc(F)cc2)c(=O)c1C(=O)Nc1ccc(Oc2ccnc(N)c2Cl)c(F)c1` [ASLAN002] was tested, and the “CTG-3D luminescence at 96 h” value was 5.36 ± 2.8. In the case of `Nc1cc(C(F)(F)F)c(-c2cc(N3CCOCC3)nc(N3CCOCC3)n2)cn1` [buparlisib], the “CTG-3D luminescence at 96 h” value is reported as 5.31 ± 2.8.
